Reference: the supplement of paper PMC10331698
± gives the standard deviation of the averaged measurements.

Assays:
Assay in all cases: level (log10 ratio to DMSO vehicle control); higher = higher biomarker level / cell amount than vehicle control
Details in all cases: in DMSO
Perfluorodecanoic acid = compound: O=C(O)C(F)(F)C(F)(F)C(F)(F)C(F)(F)C(F)(F)C(F)(F)C(F)(F)C(F)(F)C(F)(F)F [Perfluorodecanoic acid]
Experimental: (§1)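 BioMAP Diversity Plus panel of 12 human primary cell co-culture systems (3C, 4H, LPS, SAg, BT, BF4T, BE3C, CASM3C, HDF3CGF, KF3CT, MyoF, Mphg). Compounds were added 1 h before stimulation and left for 24 h (MyoF 48 h; BT 72 h for soluble read-outs or 6 d for IgG). Biomarkers were read by ELISA, cytotoxicity by SRB, PBMC viability and proliferation by Alamar Blue. Each well value was divided by the mean of 8 DMSO control wells on the same plate and log10 transformed; duplicate blinded samples were tested at 4 concentrations.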

[1] = compound: OCC(F)(F)OC(F)(F)C(F)(F)OC(F)(F)CO [1H,1H,8H,8H-Perfluoro-3,6-dioxaoctane-1,8-diol]
Experimental: as §1

Heptafluorobutyramide = compound: NC(=O)C(F)(F)C(F)(F)C(F)(F)F [Heptafluorobutyramide]
Experimental: as §1

[2] = compound: O=C(O)C(F)(F)OC(F)(F)C(F)(F)OC(F)(F)C(=O)O [Perfluoro-3,6-dioxaoctane-1,8-dioic acid]
Experimental: as §1

[3] = compound: CCN(CCO)S(=O)(=O)C(F)(F)C(F)(F)C(F)(F)C(F)(F)C(F)(F)C(F)(F)C(F)(F)C(F)(F)F [N-Ethyl-N-(2-hydroxyethyl)perfluorooctanesulfonamide]
Experimental: as §1

[4] = compound: COC(=O)CCC(F)(F)C(F)(F)C(F)(F)C(F)(F)F [Methyl 2H,2H,3H,3H-perfluoroheptanoate]
Experimental: as §1

Perfluoropentanoic acid = compound: O=C(O)C(F)(F)C(F)(F)C(F)(F)C(F)(F)F [Perfluoropentanoic acid]
Experimental: as §1

Test System | level (log10) (Perfluorodecanoic acid; 6700 nM) | level (log10) (Perfluorodecanoic acid; 20000 nM) | level (log10) ([1]; 6700 nM) | level (log10) ([1]; 20000 nM) | level (log10) ([1]; 60000 nM) | level (log10) (Heptafluorobutyramide; 6700 nM) | level (log10) (Heptafluorobutyramide; 20000 nM) | level (log10) (Heptafluorobutyramide; 60000 nM) | level (log10) ([2]; 6700 nM) | level (log10) ([2]; 20000 nM) | level (log10) ([2]; 60000 nM) | level (log10) ([3]; 6700 nM) | level (log10) ([3]; 20000 nM) | level (log10) ([4]; 6700 nM) | level (log10) ([4]; 20000 nM) | level (log10) ([4]; 60000 nM) | level (log10) (Perfluoropentanoic acid; 6700 nM) | level (log10) (Perfluoropentanoic acid; 20000 nM) | level (log10) (Perfluoropentanoic acid; 60000 nM)
LPS:CD40 | -0.015 ± 0.16 | -0.0235 ± 0.12 | 0.006 ± 0.027 | 0.017 ± 0.0028 | 0.0005 ± 0.03 | 0.0065 ± 0.022 | -0.004 ± 0.071 | 0.001 ± 0.059 | 0.025 ± 0.0099 | 0.0195 ± 0.005 | -0.0175 ± 0.053 | 0.0735 ± 0.022 | 0.122 ± 0.0042 | -0.017 ± 0.041 | 0.003 ± 0.051 | -0.015 ± 0.078 | 0.0115 ± 0.011 | 0.0075 ± 0.022 | -0.0265 ± 0.013
BE3C:CD54/ICAM-1 | 0.085 | -1.02 ± 0.012 | 0.0195 ± 0.013 | 0.0045 ± 0.015 | 0.0055 ± 0.022 | -0.0195 ± 0.019 | 0.002 ± 0.0014 | 0.0035 ± 0.015 | -0.003 ± 0.021 | -0.0035 ± 0.0092 | 0.002 ± 0.038 | 0.0705 ± 0.033 | 0.0555 ± 0.013 | -0.0075 ± 0.0092 | 0.0105 ± 0.018 | 0.002 ± 0.011 | -0.006 ± 0.0085 | -0.0095 ± 0.00071 | 0.0055 ± 0.039
3C:Proliferation | 0.0395 ± 0.032 | 0.0005 ± 0.044 | -0.066 ± 0.088 | 0.037 ± 0.035 | -0.0475 ± 0.064 | 0.006 ± 0.04 | 0.003 ± 0.051 | -0.006 ± 0.045 | 0.002 ± 0.0028 | -0.038 ± 0.044 | -0.033 ± 0.014 | -0.267 ± 0.087 | -0.947 ± 0.17 | -0.035 ± 0.0028 | -0.029 ± 0.018 | 0.018 ± 0.03 | -0.029 ± 0.028 | 0.011 | 0.0015 ± 0.046
BF4T:CD54/ICAM-1 | -0.0305 ± 0.0064 | -0.181 ± 0.011 | -0.005 ± 0.0057 | 0.008 ± 0.0028 | -0.0005 ± 0.0035 | -0.0065 ± 0.011 | -0.013 ± 0.0042 | 0.0015 ± 0.015 | -0.0025 ± 0.018 | -0.007 ± 0.0057 | 0.012 ± 0.027 | 0.0495 ± 0.016 | 0.032 ± 0.0042 | -0.025 ± 0.034 | -0.0195 ± 0.019 | -0.026 ± 0.027 | -0.0155 ± 0.0021 | -0.0135 ± 0.005 | 0.0015 ± 0.043
LPS:CD69 | -0.03 ± 0.011 | -0.048 ± 0.0099 | 0.0335 ± 0.083 | 0.033 ± 0.042 | 0.0025 ± 0.029 | 0.028 ± 0.076 | -0.0065 ± 0.056 | -0.009 ± 0.069 | -0.004 ± 0.0071 | 0.003 ± 0.017 | 0.0165 ± 0.022 | -0.134 ± 0.0028 | -0.226 ± 0.0042 | -0.019 ± 0.047 | 0.0115 ± 0.042 | -0.01 ± 0.052 | 0.007 ± 0.011 | -0.0305 ± 0.013 | -0.0135 ± 0.083
SAg:PBMC Cytotoxicity | 0.032 ± 0.0028 | 0.0625 ± 0.061 | 0.0055 ± 0.005 | 0.028 ± 0.089 | -0.033 ± 0.0042 | 0.001 ± 0.014 | -0.0125 ± 0.021 | 0.019 ± 0.0099 | 0.0115 ± 0.023 | 0.012 ± 0.0099 | 0.0115 ± 0.0078 | -0.039 ± 0.052 | -0.0865 ± 0.042 | 0.033 ± 0.021 | 0.029 ± 0.058 | 0.029 ± 0.057 | -0.0105 ± 0.023 | -0.0135 ± 0.012 | 0.0145 ± 0.022
BE3C:CXCL10/IP-10 | -0.188 ± 0.088 | -1.16 | 0.004 ± 0.02 | 0.01 ± 0.0071 | 0.0105 ± 0.016 | -0.0025 ± 0.00071 | -0.0175 ± 0.012 | 0.0075 ± 0.018 | -0.003 ± 0.0057 | 0 ± 0.0014 | 0.005 ± 0.013 | -0.051 ± 0.0028 | -0.141 ± 0.028 | -0.001 ± 0.013 | -0.004 ± 0.0057 | -0.006 ± 0.0099 | -0.0085 ± 0.016 | -0.013 ± 0.021 | 0.0005 ± 0.005
SAg:CCL2/MCP-1 | 0.0065 ± 0.0064 | -0.017 ± 0.0014 | 0.0085 ± 0.005 | -0.0105 ± 0.012 | 0.011 ± 0.037 | -0.0125 ± 0.015 | -0.011 ± 0.0099 | 0.0085 ± 0.037 | 0.0065 ± 0.0035 | -0.0145 ± 0.00071 | -0.0095 ± 0.0064 | -0.0055 ± 0.005 | -0.091 ± 0.023 | 0 ± 0.014 | -0.027 ± 0.0014 | -0.0015 ± 0.0035 | 0.0085 ± 0.021 | -0.0205 ± 0.011 | 0.023 ± 0.031
BE3C:IL-1alpha | -0.0245 ± 0.00071 | -0.811 ± 0.055 | 0.0105 ± 0.032 | 0.0055 ± 0.016 | 0.003 ± 0.0014 | -0.0085 ± 0.052 | 0.027 ± 0.037 | -0.004 ± 0.076 | 0.0105 ± 0.0092 | 0.013 ± 0.0099 | 0.0235 ± 0.063 | 0.0165 ± 0.005 | -0.0485 ± 0.059 | 0.014 ± 0.023 | -0.002 ± 0.013 | 0.025 ± 0.047 | 0.005 ± 0.02 | 0 ± 0.0028 | 0.0155 ± 0.029
LPS:IL-1alpha | 0.0275 ± 0.016 | -0.0125 ± 0.0092 | -0.0135 ± 0.00071 | -0.022 ± 0.011 | 0.0345 ± 0.0092 | -0.014 ± 0.018 | -0.0125 ± 0.0035 | 0.013 ± 0.054 | -0.032 ± 0.013 | -0.0125 ± 0.013 | 0.0195 ± 0.049 | -0.098 ± 0.013 | -0.141 ± 0.026 | -0.0265 ± 0.015 | -0.0185 ± 0.018 | 0.0235 ± 0.016 | -0.0005 ± 0.00071 | -0.0115 ± 0.012 | -0.021 ± 0.017
BT:sTNF-alpha | 0.0625 ± 0.047 | 0.018 ± 0.0099 | 0.17 ± 0.053 | 0.023 ± 0.19 | -0.036 ± 0.1 | 0.0705 ± 0.096 | -0.057 ± 0.025 | -0.0225 ± 0.0035 | -0.0245 ± 0.043 | -0.139 ± 0.035 | -0.019 ± 0.2 | -0.031 ± 0.082 | -0.312 ± 0.1 | 0.0125 ± 0.042 | -0.105 ± 0.055 | 0.0165 ± 0.12 | -0.0575 ± 0.25 | 0.0875 ± 0.012 | 0.105 ± 0.04
BT:PBMC Cytotoxicity | 0.0195 ± 0.023 | 0.045 ± 0.045 | 0.003 ± 0.017 | -0.0035 ± 0.013 | -0.009 | 0.014 ± 0.0099 | 0.0025 ± 0.025 | 0.0105 ± 0.013 | -0.018 ± 0.057 | -0.0495 ± 0.0064 | -0.0125 ± 0.012 | -0.003 ± 0.027 | -0.0615 ± 0.0035 | 0.032 ± 0.014 | 0.0045 ± 0.0092 | 0.0045 ± 0.021 | 0.0075 ± 0.035 | -0.0055 ± 0.0078 | 0.0255 ± 0.013
4H:CD106/VCAM-1 | 0.0165 ± 0.0092 | 0.0185 ± 0.029 | 0.0145 ± 0.012 | -0.0105 ± 0.0021 | -0.0025 ± 0.015 | -0.004 ± 0.021 | -0.014 ± 0.025 | -0.0155 ± 0.015 | 0.01 ± 0.023 | -0.0125 ± 0.0078 | -0.001 ± 0.0042 | 0.116 ± 0.021 | 0.0765 ± 0.0021 | -0.021 ± 0.0071 | 0.01 ± 0.035 | 0.011 ± 0.013 | 0.002 ± 0.038 | 0.0125 ± 0.0021 | 0.024 ± 0.013
LPS:sTNF-alpha | -0.0245 ± 0.011 | -0.02 ± 0.017 | -0.0235 ± 0.025 | -0.0435 ± 0.032 | -0.0335 ± 0.022 | 0.012 ± 0.017 | 0.013 ± 0.011 | 0.001 ± 0.023 | -0.012 ± 0.057 | 0.0145 ± 0.063 | 0.0445 ± 0.059 | -0.006 ± 0.0028 | -0.005 ± 0.0085 | 0.0245 ± 0.005 | -0.007 ± 0.011 | -0.025 ± 0.033 | 0.003 ± 0.021 | 0.01 ± 0.0071 | 0.021 ± 0.014
BT:sIL-17A | -0.0525 ± 0.0092 | -0.0075 ± 0.17 | 0.144 ± 0.073 | -0.0645 ± 0.022 | -0.128 ± 0.16 | -0.0055 ± 0.22 | -0.177 ± 0.22 | 0.058 ± 0.082 | -0.0535 ± 0.049 | 0.154 ± 0.19 | 0.0055 ± 0.047 | 0.122 ± 0.083 | -0.631 ± 0.21 | -0.0765 ± 0.18 | 0.001 ± 0.11 | -0.0075 ± 0.064 | 0.0585 ± 0.042 | -0.0535 ± 0.0078 | 0.055 ± 0.13
